Reference: the supplement of paper PMC11616607

What was measured:
Assay in all cases: drug sensitivity score (DSS) from 5-point dose-response viability curve (DSS (area-under-curve based score)); higher = more sensitive (stronger growth inhibition or killing); extreme values may be limits of the assay
Conditions in all cases: exposure time: 72 h; concentration range: 5 concentrations over 10,000-fold range
Ovsaho = tested on: Ovsaho
In short: (§1)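 Each cell line and drug received a drug sensitivity score from Breeze software, where higher means more sensitive. Zero stands for no response. Scores came from CellTiter-Glo viability readings of ovarian cancer and normal ovarian cells, 1,500 per well in 384-well plates, after 3 days at 37°C, 5% CO2 with drugs at five concentrations over a 10,000-fold range.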

HOSE2C = tested on: HOSE2C
In short: as §1

OVCAR4 = tested on: OVCAR4
In short: as §1

HOSE1C = tested on: HOSE1C
In short: as §1

COV318 = tested on: COV318
In short: as §1

OVCAR8 = tested on: OVCAR8
In short: as §1

JHOS2 = tested on: JHOS2
In short: as §1

Kuramochi = tested on: Kuramochi
In short: as §1

OV90 = tested on: OV90
In short: as §1

OVCAR5 = tested on: OVCAR5
In short: as §1

COV362 = tested on: COV362
In short: as §1

CAOV3 = tested on: CAOV3
In short: as §1

Compound | drug sensitivity score (Ovsaho) | drug sensitivity score (HOSE2C) | drug sensitivity score (OVCAR4) | drug sensitivity score (HOSE1C) | drug sensitivity score (COV318) | drug sensitivity score (OVCAR8) | drug sensitivity score (JHOS2) | drug sensitivity score (Kuramochi) | drug sensitivity score (OV90) | drug sensitivity score (OVCAR5) | drug sensitivity score (COV362) | drug sensitivity score (CAOV3)
Cc1c(-c2ccc(N3CCc4cccc(C(=O)Nc5nc6ccccc6s5)c4C3)nc2C(=O)O)cnn1CC12CC3CC(CC(C3)C1)C2 | 2.5 | 5.8 | 2.1 | 20.6 | 0 | 0.8 | 0 | 0 | 7.6 | 1 | 0 | 5.1
CCN(CC)CCCC(C)Nc1c2ccc(Cl)cc2nc2ccc(OC)cc12 (stereo unspecified) [Mepacrine] | 13.1 | 8.2 | 15.2 | 9.7 | 10.3 | 12.1 | 10.5 | 13.2 | 16 | 13.1 | 10.3 | 9.4
NC(=O)NO [Hydroxyurea] | 2.3 | 8 | 0 | 8.2 | 1.7 | 5.1 | 3.3 | 0 | 2.8 | 2.9 | 0.1 | 1.1
COc1cc2c(N3CCN(C(=O)Nc4ccc(OC(C)C)cc4)CC3)ncnc2cc1OCCCN1CCCCC1 [Tandutinib] | 0 | 0 | 0 | 0 | 0 | 0 | 0 | 0 | 0 | 0 | 0 | 0
Cc1cc2c(C(=O)NC[C@H](C)c3ccccc3)c(O)c(O)cc2c(O)c1-c1c(C)cc2c(C(=O)NC[C@H](C)c3ccccc3)c(O)c(O)cc2c1O [Sabutoclax] | 8.2 | 16.1 | 8.3 | 18 | 8.8 | 15.9 | 8.1 | 6.7 | 11.2 | 10.8 | 9 | 15.4
O=C(O)c1ccc(O)c2ncccc12 [IOX-1] | 1.6 | 3.4 | 1.5 | 4.6 | 0 | 3 | 0 | 1.6 | 3.2 | 1 | 0 | 1.2
CC1(C)C(C(=O)Nc2ccc(S(=O)(=O)c3ccc(NC(=O)C4C(C)(C)C4(C)C)cc3)cc2)C1(C)C [BRD7116] | 3.8 | 0 | 2.1 | 0 | 0.1 | 0 | 0.7 | 2.1 | 0 | 2.1 | 0 | 0.3
CN1CCc2c(c3ccccc3n2Cc2ccc(C(=O)NO)cc2)C1 [Tubastatin A] | 1 | 2.7 | 1.7 | 4.2 | 0.9 | 4.6 | 1.8 | 1.5 | 3.4 | 5.2 | 1.7 | 0.7
CC(C)N(CCCNC(=O)Nc1ccc(C(C)(C)C)cc1)C[C@H]1O[C@@H](n2cc(Br)c3c(N)ncnc32)[C@H](O)[C@@H]1O [SGC0946] | 0.1 | 0 | 0.1 | 0 | 0 | 0 | 0 | 0 | 2.3 | 1.7 | 3.4 | 0
Oc1ncnc2[nH]ncc12 [Allopurinol] | 0 | 0 | 0.2 | 0 | 0 | 0 | 0 | 0 | 0.3 | 0 | 0 | 0
CCC(C)n1ncn(-c2ccc(N3CCN(c4ccc(OCC5COC(Cn6cncn6)(c6ccc(Cl)cc6Cl)O5)cc4)CC3)cc2)c1=O (stereo unspecified) [Itraconazole] | 0.2 | 0 | 2.1 | 0 | 0.9 | 1.9 | 0.2 | 1.1 | 4.1 | 5.9 | 0.6 | 0
CCN(CC)CCN(Cc1ccc(-c2ccc(C(F)(F)F)cc2)cc1)C(=O)Cn1c(SCc2ccc(F)cc2)nc(=O)c2c1CCC2 [Darapladib] | 2 | 0 | 0 | 0 | 0.2 | 0 | 0.3 | 1 | 0.6 | 0.9 | 2.4 | 0
CCCCC(=O)OCC(=O)[C@]1(O)Cc2c(O)c3c(c(O)c2[C@@H](O[C@H]2C[C@H](NC(=O)C(F)(F)F)[C@H](O)[C@H](C)O2)C1)C(=O)c1c(OC)cccc1C3=O [Valrubicin] | 10.9 | 8.3 | 3.8 | 10.1 | 4.4 | 9.5 | 6.6 | 6.6 | 7.7 | 6.2 | 2.4 | 10.8
